Source: patent US20260240809A1 (EDMOND PHARMA SRL, priority 2022, published 2026)
Converted amounts (≈) assume the structure as drawn. Like-named read-outs stand apart in the source and are kept apart here. Blank lines part the entries; values can stand above or below the compound they belong to.

Tests used:
TrkA receptor = biological target: T1, TrkA receptor (Homo sapiens, UniProt P04629); assay: Phospho-TrkA (Tyr674/675) ELISA: activation of TrkA receptor by NGF in SH-SY5Y cells; format: cell-based; settings: for effect on basal activity in absence of NGF: FIG. 4
T1 construct: host or cells: SH-SY5Y human neuroblastoma cells
Experimental: The experiment is based on a commercially available ELISA assay evaluating the amount of phosphorylated TrkA (Pandre M K. et al., 2018) and used as indicated in the producer's protocol. The cell culture conditions were described in Marchesi N. et al., 2020.
All the experiments were performed under a laminar flow hood.
The phospho-TrkA (Tyr674/675) protein levels in SH-SY5Y cells were estimated with a specific ELISA kit (Cell Signaling, #7212C.), according to the manufacturer's instructions.
PathScan® Phospho-TrkA (Tyr674/675) Sandwich ELISA Kit is a solid phase sandwich enzyme-linked immunosorbent assay that detects […] levels of Phospho-TrkA (Tyr674/675) protein. A TrkA Mouse mAb #4614 has been coated onto the microwells. After incubation with cell lysates, both phospho- and nonphospho-TrkA proteins are captured by the coated antibody. Following extensive washing to remove any unbound antibody/reagent, Phospho-TrkA (Tyr674/675) Antibody #4610 is added to detect phospho-TrkA protein. Anti-rabbit IgG, HRP-linked Antibody #7074 is then used to recognize the bound detection antibody. HRP substrate, TMB (3,3′,5,5′-tetramethylbenzidine), is added to develop color. The magnitude of optical density is proportional to the quantity of Phospho-TrkA (Tyr674/675) protein.
The color development was stopped and the intensity of the color measured at 450 nm using a Synergy HT microplate reader (BioTek Instruments). The antibodies used in the kit were custom formulations specific for the kit.

SH-SY5Y cells = format: cell-based; settings: human
Experimental: Accordingly, two time points were explored: short (90 min) and long (24 hrs). In general, longer times of exposure may sometime influence the chosen response to the test conditions/substances; it is therefore important in the starting exploratory protocols to explore an adequate time interval.
The cellular toxicity was evaluated by measuring the mitochondrial activity through the MTT assay (Marchesi N. et al., 2020).
Mitochondrial enzymatic activity was estimated by MTT [3-(4,5-dimethylthiazol-2-yl)-2,5-diphenyltetrazolium bromide] assay (Sigma-Aldrich). A cell suspension of 2×10^4 cells/mL SH-SY5Y cell line was seeded into 96-well plates.
Following each treatment of 90 minutes and 24 hours, 50 μL of MTT (concentration equal to 2.5 mg/mL) were added to each well. After incubation at 37° C. for 3 hours, the purple formazan crystals were formed. The formed crystals were solubilized in dimethylsulfoxide (DMSO; Sigma-Aldrich). Specifically, after removing the MTT from the wells, 100 μL of DMSO were added in order to lyse the cellular and mitochondrial membranes, and solubilize the formazan crystals. After 10 minutes, absorbance values were measured at 595 nm using a Synergy HT microplate reader (BioTek Instruments) and the results expressed as % with respect to control. […]

[1] = Solubility of the test substances; format: physicochemical
[2] = 1 mM, 24 hrs, FIG. 9, Dunnett's test
[3] = 10 mM, 24 hrs, FIG. 8, Dunnett's test
[4] = 10 mM, 24 hrs, FIG. 9, Dunnett's test
[5] = 24 hrs exposure, no NGF, FIG. 8
[6] = SH-SY5Y, read-out: inhibition of TrkA activation by NGF, 10 mM, 24 hrs exposure, FIG. 8
[7] = 10 mM, 90 min, FIG. 4, Tukey's test
[8] = SH-SY5Y, read-out: inhibition of NGF (reduction of the response to NGF)
[9] = SH-SY5Y, read-out: inhibition of TrkA activation by NGF

T1 sequence (P04629 33-796): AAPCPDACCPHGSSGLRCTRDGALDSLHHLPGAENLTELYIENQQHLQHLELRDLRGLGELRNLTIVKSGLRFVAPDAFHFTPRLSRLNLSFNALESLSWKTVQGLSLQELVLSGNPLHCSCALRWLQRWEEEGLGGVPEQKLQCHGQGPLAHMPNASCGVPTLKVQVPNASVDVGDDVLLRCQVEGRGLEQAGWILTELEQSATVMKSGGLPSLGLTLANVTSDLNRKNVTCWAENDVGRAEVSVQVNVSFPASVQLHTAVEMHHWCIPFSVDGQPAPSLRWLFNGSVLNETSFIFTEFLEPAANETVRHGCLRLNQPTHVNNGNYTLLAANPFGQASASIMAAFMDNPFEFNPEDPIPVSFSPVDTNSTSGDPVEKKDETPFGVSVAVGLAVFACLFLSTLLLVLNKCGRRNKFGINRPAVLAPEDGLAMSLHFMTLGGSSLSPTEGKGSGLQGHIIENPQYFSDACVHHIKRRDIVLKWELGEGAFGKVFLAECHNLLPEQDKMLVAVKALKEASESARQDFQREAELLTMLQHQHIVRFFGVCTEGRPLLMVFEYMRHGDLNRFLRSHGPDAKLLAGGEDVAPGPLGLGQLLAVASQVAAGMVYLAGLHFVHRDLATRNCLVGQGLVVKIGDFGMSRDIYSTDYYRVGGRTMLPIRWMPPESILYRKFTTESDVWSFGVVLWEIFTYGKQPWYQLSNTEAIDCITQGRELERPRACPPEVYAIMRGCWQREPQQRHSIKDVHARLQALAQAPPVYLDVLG

Statistically significant (NGF vs. substance + NGF) (TrkA receptor; 1 nM, 24 hrs, FIG. 9, Dunnett's test): No | Statistically significant (NGF vs. substance + NGF) (TrkA receptor; 100 nM, 24 hrs, FIG. 9, Dunnett's test): Yes | effect on TrkA activation by NGF (TrkA receptor; 100 nM, 24 hrs, no change up to 10 mM, FIG. 9): already maximal | Statistically significant (NGF vs. substance + NGF) (TrkA receptor; 1 uM, 24 hrs, FIG. 9, Dunnett's test): Yes | Statistically significant (NGF vs. substance + NGF) (TrkA receptor; 0.01 mM, 24 hrs, FIG. 9, Dunnett's test): Yes | Statistically significant (NGF vs. substance + NGF) (TrkA receptor; 0.05 mM, 24 hrs, FIG. 9, Dunnett's test): Yes | Statistically significant (NGF vs. substance + NGF) (TrkA receptor; 0.1 mM, 24 hrs, FIG. 9, Dunnett's test): Yes | Statistically significant (NGF vs. substance + NGF) (TrkA receptor; [2]): No | Statistically significant (NGF vs. substance + NGF) (TrkA receptor; 5 mM, 24 hrs, FIG. 9, Dunnett's test): Yes | Statistically significant (NGF vs. substance + NGF) (TrkA receptor; [3]): Yes | Statistically significant (NGF vs. substance + NGF) (TrkA receptor; [4]): Yes | IC50 (TrkA receptor; 24 hrs exposure, FIG. 9): 0.001 to 0.1 µM | effect on the basal activity (TrkA receptor; [5]): no effect | inhibition at 10000 µM (TrkA receptor; [6]): 41%
SMILES: O=C(O)CSCC(=O)N[C@H]1CCSC1=O [Erdo S]

decrease of mitochondrial activity (SH-SY5Y cells; 24 h, 10 mM): 17.5% | Statistically significant (NGF vs. substance + NGF) (TrkA receptor; [7]): Yes | Statistically significant (NGF vs. substance + NGF) (TrkA receptor; 20 mM, 90 min, FIG. 3, Tukey's test): Yes | Statistically significant (NGF vs. substance + NGF) (TrkA receptor; 20 mM, 90 min, FIG. 4, Tukey's test): Yes | Statistically significant (NGF vs. substance + NGF) (TrkA receptor; 40 mM, 90 min, FIG. 3, Tukey's test): Yes | effect on basal pTrkA levels (substance alone) (TrkA receptor; 20 and 40 mM, 90 min, no NGF, FIG. 3): did not alter | effect on basal activity in absence of NGF (TrkA receptor; 90 min, no NGF): do not modify | inhibition at 10000 µM (TrkA receptor; [8]): 23% | inhibition at 20000 µM (TrkA receptor; [8]): 24.5% | inhibition at 20000 µM (TrkA receptor; [9]): 34% | inhibition at 40000 µM (TrkA receptor; [9]): 52% | solubility ([1]; water): 164 mg/mL (≈ 613 mM)
SMILES: O=C(O)CSCC(=O)NC(CCS)C(=O)O (stereo not shown) [Met-1]

decrease in mitochondrial activity (SH-SY5Y cells; 90 min, 20 mM): 16.3% | Statistically significant (NGF vs. substance + NGF) (TrkA receptor; 0.1 mM, 24 h, FIG. 7, Tukey's test): No | inhibitory action on TrkA activation by NGF (TrkA receptor; 0.1 mM, 24 hrs exposure, FIG. 7): ineffective | Statistically significant (NGF vs. substance + NGF) (TrkA receptor; 0.5 mM, 24 h, FIG. 7, Tukey's test): Yes | inhibition of TrkA activation by NGF at plateau (TrkA receptor; 1 mM and higher (up to 10 mM), 24 hrs exposure, FIG. 7): around 40% | Statistically significant (NGF vs. substance + NGF) (TrkA receptor; 1 mM, 24 h, FIG. 7, Tukey's test): Yes | inhibitory action on TrkA activation by NGF (TrkA receptor; 1.0 mM, 24 hrs exposure, FIG. 7): significant inhibitory action | Statistically significant (NGF vs. substance + NGF) (TrkA receptor; [2]): No | Statistically significant (NGF vs. substance + NGF) (TrkA receptor; 5 mM, 24 h, FIG. 7, Tukey's test): Yes | Statistically significant (NGF vs. substance + NGF) (TrkA receptor; 10 mM, 90', FIG. 6, Tukey's test): Yes | Statistically significant (NGF vs. substance + NGF) (TrkA receptor; [7]): No | Statistically significant (NGF vs. substance + NGF) (TrkA receptor; 10 mM, 24 h, FIG. 6, Tukey's test): Yes | Statistically significant (NGF vs. substance + NGF) (TrkA receptor; 10 mM, 24 h, FIG. 7, Tukey's test): Yes | Statistically significant (NGF vs. substance + NGF) (TrkA receptor; [3]): Yes | Statistically significant (NGF vs. substance + NGF) (TrkA receptor; [4]): Yes | effect on basal activity in absence of NGF (TrkA receptor; 90 min, no NGF): do not modify | IC50 (TrkA receptor; 24 hrs exposure, FIG. 9): 500 to 1000 µM | inhibition at 10000 µM (TrkA receptor; SH-SY5Y, 10 mM, 24 hours exposure, FIG. 6, read-out: inhibition of TrkA phosphorylation): 42.2% | inhibition at 10000 µM (TrkA receptor; SH-SY5Y, read-out: inhibition of NGF (reduction of the response to NGF), 10 mM, 90 min pre-exposure, NGF 100 ng/ml, FIG. 4): 8.2% | inhibition at 10000 µM (TrkA receptor; SH-SY5Y, read-out: inhibition of TrkA activation by NGF, 10 mM, 90 min exposure, FIG. 6): 13.9% | inhibition at 10000 µM (TrkA receptor; [6]): 36% | solubility at 20 min ([1]; 37 °C, aqueous buffer, MEM, warming 20 minutes at 37°): 11 mg/mL (≈ 44.1 mM)
SMILES: O=C(O)CSCC(=O)NC1CCSC1=O (racemic) [erdosteine, (2-[N-3-(2-oxotetrahydrothienyl)]acetamido)-thioglycolic acid, reference compound]
inhibitory action on TrkA activation by NGF (TrkA receptor; 0.5 mM, 24 hrs exposure, FIG. 7): a trend which is appreciable but not strongly statistically significant

SMILES: O=C(O)CSCC(=O)N[C@@H]1CCSC1=O [Erdo R]
inhibition of TrkA activation by NGF (TrkA receptor; 10 mM, 24 hrs exposure, FIG. 8): 30% | Statistically significant (NGF vs. substance + NGF) (TrkA receptor; [3]): Yes | effect on the basal activity (TrkA receptor; [5]): no effect
